Source: a melting point compilation (Tetko et al.; mined from patent text by program, amines drawn as free bases though some values may be those of a salt)

SMILES	melting point [°C]
CC(=O)Oc1c(C)c(C)c2c(c1C)C(c1ccc(F)cc1)C(C)(C)O2 (stereo not given)	86 to 87
Cc1c(CC#N)cc(C(C)(C)C)c(O)c1C	126 to 128
CN(C)c1cccc(OC(=O)NC2C(=O)N(CC34CC5CC(CC(C5)C3)C4)c3ccccc3N(c3ccccc3)C2=O)c1 (stereo not given)	130 to 132
COc1ccc(/C=C/C(=O)N2CCc3ccccc32)cc1OC	118 to 120
NS(=O)(=O)c1cc2c3c(cc([N+](=O)[O-])c2cc1[N+](=O)[O-])N(C(=O)C(F)(F)F)CC3CCl (stereo not given)	201 to 204
O=C1NC(=O)C(Nc2cccc(-c3ccc(OCc4ccc5ccccc5n4)cc3)c2)S1 (stereo not given)	132 to 133
O=C(NCc1ccc(F)cc1)c1cn2nc(N3CCN(C(=O)c4ccccc4C(F)(F)F)CC3)ccc2n1	205 to 207
Cc1nnc(-c2ccc3occ(-c4cnn(Cc5ccccn5)c4)c3c2)o1	134 to 135
Nc1ccn([C@@]2(O)CC=C(P(=O)(O)O)O[C@@H]2CO)c(=O)n1	290
CCOc1c(Br)cc(C(C)(C)C)cc1C(C)(C)C	55 to 56
O=C(Nc1c(C(O)(C(F)(F)F)C(F)(F)F)ccc2ccccc12)c1ccno1	162 to 164
COc1cc(N)c(Cl)cc1C(=O)NCC1CCN(CCCCCC(=O)c2ccc(F)cc2F)CC1	115 to 117
N#CCOc1ccc(CCNC(=O)OCc2ccccc2)cc1	110 to 115
Cn1cc(C2=C(c3cccc4ccccc34)C(=O)NC2=O)c2ccccc21	258 to 260
Cc1ccccc1C(=S)N1CC1C#N (stereo not given)	67 to 69
CCOC(=O)[C@@H](CCC(=O)N1c2ccccc2C[C@H]1C(=O)OCC)NC(=O)[C@@H](N)CCCCNSc1ncccc1[N+](=O)[O-]	95 to 102
O=C(O)c1n[nH]c2cc(F)ccc12	> 290
CC(c1cc(F)ccc1Oc1nc2ccc(-n3cc(-c4ccccc4)nn3)cc2cc1Cc1ccccc1)n1ccnc1 (stereo not given)	118 to 120
O=C1OC(c2ccccc2)=CC1=Cc1cccs1	141
O=C(C=Cc1cccnc1)NCCCCC1CCN(C(=O)c2ccccc2)CC1	100 to 102
COc1ccnc(CCc2nc3cccnc3[nH]2)c1	116 to 117
CNCC(O)c1cccc(Cl)c1 (stereo not given)	95.5 to 97
CCCCc1nc(Cl)c(CO)n1Cc1ccc(-c2ccccc2-c2nnnn2-c2ccc([N+](=O)[O-])cc2)cc1	182 to 186
CCN(CC)CCOc1ccc2c(c1)C(=O)c1ccc(OCCN(CC)CC)cc1C2=O	169 to 170
O=C1CCC(c2cccc(O)c2)N1Cc1ccncc1 (stereo not given)	148 to 150

SMILES	melting point [°C]
Brc1ccc(Br)c2nc(-c3ccccc3)c(-c3ccccc3)nc12	221 to 223
O=C(O)CNC(=O)c1ccc([N+](=O)[O-])cc1[N+](=O)[O-]	188 to 190
CC(NC(=O)C(C)(C)CCl)c1ccc(Cl)cc1 (stereo not given)	95 to 96
CCCCCc1c([N+](=O)[O-])cc([N+](=O)[O-])c2nc(C(F)(F)F)[nH]c12	86 to 88
CSc1nc(Cl)c(C#N)c(Cl)n1	107
COC(=O)COc1ccc(C(=O)CNC=O)cc1	116
FC(F)Oc1ccc(CN(C(=Nc2ccccc2)N(Cc2ccc(OC(F)F)cc2)C2CCCC2)C2CCCC2)cc1	86.5 to 88
N#Cc1cc(-c2nc3cncnc3s2)ccc1Sc1ccccc1F	178 to 180
CCN(CC)Cc1ccccc1Oc1ccc(-c2cn(C3CCOC3)c3ncnc(N)c23)cc1 (stereo not given)	107 to 110
CN1Cc2c(C(N)=O)ncn2-c2ccc(Cl)cc2C1=O	275 to 277
CN1C(=O)CN=C(c2ccccc2F)c2cc(NC(=O)NC(C)(C)CO)ccc21	162 to 176
CC(C)n1nc(-c2sc(NC(=O)c3ccc(CN4CCOCC4)cc3)nc2-c2ccccc2)ccc1=O	222 to 224
COc1ccc2[nH]c(C(=O)c3cc4ccccc4[nH]3)cc2c1	112
O=C(O)C1=Cc2cc(Oc3ccccc3)ccc2OC1C(F)(F)F (stereo not given)	185 to 186
CC(C)(C)c1ccc(OC(Cc2ccc(OCCNC(=O)c3ccc(-c4ccccn4)cc3)cc2)C(=O)O)cc1 (stereo not given)	94 to 96
CCCC(CNc1cc(Cl)ccc1C(=O)O)C(=O)O (stereo not given)	206
CCCCCCC(=O)N[C@@H](C(=O)OCc1ccccc1)[C@@H](C)O	70 to 73
Cc1nc(N)c(N)cc1Cl	128 to 130
CCCOc1ccc(S(=O)(=O)N2CCN(CC)C(C(=O)OCC)C2)cc1-c1nc2cc3nc[nH]c3cc2c(=O)[nH]1 (stereo not given)	158 to 163
CC(C)(C)NC(=O)C1CCC2C3CC=C4C=C(C#N)CCC4(C)C3CCC12C (stereo not given)	198 to 200
COc1nc2c(C)cccc2c2c1CCN2c1ccccc1C	107 to 108
CCOC(=O)c1nc(-c2ccc(Cl)cc2F)nc(N)c1Cl	131 to 132
CCC(O)(CC)Cc1ccc(N)cc1	85 to 86
Cc1noc(NS(=O)(=O)c2ccc(-c3ccccc3)cc2)c1Cl	129 to 132

Other lines, results leading:

melting point [°C]	SMILES
177 to 178	O=C(Nc1ccccc1)N1CCc2cc(S(=O)(=O)N3CCN(c4cccc(Cl)c4)CC3)ccc21
130	COc1cccc(Oc2cccc(NC(=O)c3ccn4c3CSC4c3cccnc3)c2)c1 (stereo not given)
107 to 108	COC(OCCc1nc(C(C)C)c(Sc2cc(Cl)cc(Cl)c2)n1C)(c1ccccc1)c1ccccc1
212 to 214	Cc1nc(-c2cccnc2)sc1-c1ccnc(Nc2ccc(N3CCCC3)cc2)n1
214	Cc1cc(I)cc(C(=O)O)c1N
108 to 113	CC(C)CC(NC(=O)C(Cc1c[nH]cn1)NC(=O)C(CC(=O)NCCc1ccccc1)Cc1cccc2ccccc12)C(O)CNCc1ccccc1 (mixture of isomers)
174 to 176	O=C1c2ccccc2C(=O)N1C[C@H]1COc2ccc(Cl)cc2O1
102 to 104	O=C(CN1CCC(Cc2ccccc2)CC1)Nc1cccc([N+](=O)[O-])c1
128 to 130	CN(C)Cc1cc2ccc(-c3nnc(CSCCOc4ccccc4)o3)cc2[nH]1
59 to 61	O=c1oc(-c2ccccc2)cc(O)c1C(CC1CC1)SCc1ccccc1 (stereo not given)
138 to 140	O=C(O)Cc1ncc2c(n1)-c1ccc(Cl)cc1C(c1ccccc1F)=NC2
67 to 69	CN(C=O)c1ccccc1C(=O)COS(C)(=O)=O
92 to 93	CC(C)(C)c1nc(N)nc(C(C)(C)C)c1O
174 to 180	CC(C)c1ccc(-n2c(CC(=O)O)c(C(=O)O)c3cc(Oc4ccc(Cl)c(Cl)c4)ccc32)cc1
150 to 152	Cc1ccc(-c2cnc(-c3ccc(C(F)(F)F)cc3)s2)s1
113 to 114	C=C(C(=O)c1ccccc1)c1cccnc1
211 to 212	CSc1c(O[C@H]2CC[C@@H](N3C(=O)c4ccccc4C3=O)CC2)ccc2[nH]ncc12
89 to 90	COc1ccc(-c2cnc(N)c(Sc3ccccc3)n2)cc1
177 to 179	CCOC(=O)C1=C(C)NC(C)=C(C(=O)OCC)C1c1c(SC)sc2ccccc12
104 to 105	O=C(O)CCSC(=S)NCc1ccc(Cl)cc1
74	Cc1cccc(C2SCCCS2)n1
226 to 228	CC(=O)NCC1CN(c2ccc(N3CCN(c4nc5cc(F)ccc5o4)CC3)c(F)c2)C(=O)O1 (stereo not given)
310 to 317	O=C1N=C(N2CCOCC2)SC1c1cncc(-c2cc(F)c(O)c(C34CC5CC(CC(C5)C3)C4)c2)c1 (stereo not given)

melting point [°C]	SMILES
48 to 55	CC(C)c1nc2ccccc2c(=O)n1NC(=O)C(C)c1ccccc1 (stereo not given)
166 to 167	O=C1CC(c2cccc(-c3nc(CN4CCOCC4)co3)c2)=Nc2ccc(-n3cccc3)cc2N1
175 to 176	Nc1c(-c2nc(-c3ccco3)n[nH]2)cnn1CCc1ccccc1
133 to 134	CNC(=O)c1ccccc1C(O)c1ccc(F)cc1 (stereo not given)
130 to 132	Cc1cccc(CNC(=O)c2ccc3n2Cc2ccccc2N(C(=O)c2ccc(-c4ccccc4C)c(C)c2)C3)c1
208 to 209	CCc1nc2c(N)nc3cc(OCC(=O)N4CCOCC4)ccc3c2n1CCOc1ccccc1
134 to 135	CC(C)(C)OC(=O)N1C(=O)O[C@@H](c2ccc(F)cc2)[C@H]1Cc1ccc(C(F)(F)F)o1 (racemic)
118 to 121	COc1cc2c(cc1OC)NC(=O)N(CCCN(C)CCCS(=O)(=O)c1ccccc1)CC2
160 to 162	CC(C)Oc1ccc(OCc2ccccc2)cc1-c1nc2cccnc2[nH]1
44 to 46	CC1(C)CCC2=C(O1)c1ccccc1C1(OCC(CO)O1)C2=O (stereo not given)
131 to 134	CSc1nc(NCCCn2ccnc2)c(C#N)c(N2CCc3ccccc3CC2)n1
> 300	Cn1ccc(-c2[nH]nc3c2C(=O)c2c(NC(N)=O)cccc2-3)c1
144	O=[N+]([O-])c1ccc(NCCCn2ccnc2)c(F)c1
183 to 184	COc1ccc(C=Nc2ccc(SC)cc2)cc1
10	CCCCC(Cc1cccnc1)(C(=O)OC(C)(C)C)S(=O)(=O)c1ccc(OC)cc1 (stereo not given)
127 to 128	CS(=O)(=O)c1ccc(C(Cc2ccc(F)cc2Cl)C(=O)Nc2nc3ccccc3o2)cc1 (stereo not given)
202 to 205	Cn1nc(-c2nc(-n3cccc3)c(N)nc2-c2ccccc2)ccc1=O
90 to 99	Cc1cc(C)n(-c2ncc(Cl)c(NC3CCCCC3)n2)n1
75 to 76	OC(CNCc1ccccc1)COc1ccc(CCOCC2CC2)cc1 (stereo not given)
100 to 102	CC(=O)SC[C@H](NC(=O)C(C)C)C(=O)NCCSC(=O)C(C)C
68 to 71	Cc1cc([N+](=O)[O-])c(C)cc1Oc1cccc(C(F)(F)F)c1
185 to 186	COC(C(=O)O)c1nn(-c2ccc(Cl)cc2)c2c1CCCC2 (stereo not given)
177 to 179	CCCc1nc2c(N)nc(C)c(C)c2n1NC1CCCCC1
